Experimental data published in patent US20050065140A1, “Serotonine reuptake inhibitor” (priority 2001, published 2005).

Legend:
human 5-HT1A receptor = molecular target: T1, human 5-HT1A receptor (Homo sapiens, UniProt P08908); test: 5-HT1A receptor stimulation test, [^35S]GTPγS binding (Test Example 3); assay type: biochemical; settings: 10^-5 M test substance; membranes of human 5-HT1A/CHO cells; increase in [^35S]GTPγS binding caused by 10 μM 5-HT taken as 100%
T1 construct: expressed in transfected cells; host or cells: CHO cells (human 5-HT1A/CHO), membrane preparation
T1 sequence (P08908 1-422): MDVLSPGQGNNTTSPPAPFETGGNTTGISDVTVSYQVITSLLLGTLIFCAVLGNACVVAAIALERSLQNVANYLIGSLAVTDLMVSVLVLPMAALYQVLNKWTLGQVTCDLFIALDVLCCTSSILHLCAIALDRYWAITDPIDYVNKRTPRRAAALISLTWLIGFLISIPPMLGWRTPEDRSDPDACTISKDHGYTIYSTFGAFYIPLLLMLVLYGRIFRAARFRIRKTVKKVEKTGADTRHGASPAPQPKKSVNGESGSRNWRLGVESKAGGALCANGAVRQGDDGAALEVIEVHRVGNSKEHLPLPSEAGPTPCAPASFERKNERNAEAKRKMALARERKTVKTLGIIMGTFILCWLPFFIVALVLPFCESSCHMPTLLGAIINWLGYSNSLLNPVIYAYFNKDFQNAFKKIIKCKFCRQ
Description: 5-HT1A Receptor Stimulation Test
CHO cells expressing human 5-HT1A receptor (human 5-HT1A/CHO) were used in the experiment. The cells were cultured in F12 containing 10% FCS, 500 μg/ml Geneticin and 100 U/ml penicillin-100 μg/ml streptomycin (all available from GIBCO) in a 5% CO2 incubator, and a membrane preparation was prepared according to the method^3)of A. Newman et al. In detail, cells scraped and collected by the use of buffer solution A (20 mM HEPES, 5 mM MgSO4) were homogenized in a Teflon™ homogenizer, followed by centrifugation (50,000×g, 30 min, 4° C.). The precipitate was re-suspended in a suitable volume of buffer solution A and stored at −80° C. until use. The amount of protein in the membrane preparation was determined with Dye Reagent Concentrate (BIO-RAD) by using Albumin Bovine (SIGMA) as a standard substance.
Binding of [^35S]GTPγS to human 5-HT1A receptors was measured by the use of the above-mentioned membrane preparation according to the method^3)of A. Newman et al. In detail, 0.05 nM of [^35S]GTPγS (E.I. du Pont de Nemours & Co. NEN) and a definite amount (about 50 μg/tube) of the membrane preparation were added to buffer solution B (20 mM HEPES, 3 mM MgSO4, 3 μM GDP, 1 mM DTT) containing 10^−5 M of each test substance, and the resulting liquid for reaction having a total volume of 1 ml was incubated at 22° C. for 20 minutes. After completion of the reaction, the reaction mixture was diluted with 5 ml of ice-cooled buffer solution B, and the dilution was immediately filtered by suction through glass fiber filter (Whatman, GF/B) to terminate the reaction. The glass fiber filter was washed twice with the same buffer solution as above and placed in a vial, and 4 ml of ACS-II was added thereto. The radioactivity of [^35S]GTPγS on the filter was measured with a liquid scintillation counter. The amount of [^35S]GTPγS specifically bound was calculated from the amount of [^35S]GTPγS non-specifically bound in the presence of 10 μM of GTPγS (Sigma). The 5-HT1A receptor stimulating activity of each test substance was expressed in terms of the rate of increase in [^35S]GTPγS binding by taking an increase in [^35S]GTPγS binding caused by 10 μM of 5-HT, as 100%.

COc1ccc(Br)c(CC2CCN(CCC3CCN(CCO)CC3)CC2)c1.Cl.Cl [Example 6, 2-(4-(2-(4-(2-Bromo-5-methoxybenzyl)-1-piperidinyl)ethyl)-1-piperidinyl)ethanol Dihydrochloride]
5-HT1A receptor stimulating activity (%) (human 5-HT1A receptor): 53%

CCN[C@H]1CC[C@H](CCN2CCC(Cc3cc(OC)ccc3Br)CC2)CC1.Cl.Cl [Example 38, trans-N-(4-(2-(4-(2-bromo-5-methoxybenzyl)-piperidin-1-yl)ethyl)cyclohexyl)-N-ethylamine Dihydrochloride]
5-HT1A receptor stimulating activity (%) (human 5-HT1A receptor): 48%

CO[C@H]1CC[C@H](CCN2CCC(Cc3cc(OC(C)C)ccc3Br)CC2)CC1.Cl [Example 44, trans-4-(2-Bromo-5-isopropoxybenzyl)-1-(2-(4-methoxycyclohexyl)ethyl)piperidine Hydrochloride]
5-HT1A receptor stimulating activity (%) (human 5-HT1A receptor): 51%
melting point: 196 °C

CCN([C@H]1CC[C@H](CCCN2CCC(Cc3cc(OC(C)C)ccc3Br)CC2)CC1)S(C)(=O)=O.Cl [Example 46, trans-N-(4-(3-(4-(2-bromo-5-isopropoxy-benzyl)piperidin-1-yl)propyl)cyclohexyl)-N-ethylmethanesulfonamide Hydrochloride]
5-HT1A receptor stimulating activity (%) (human 5-HT1A receptor): 62%

COc1ccc(Br)c(CC2CCN(CC[C@H]3CC[C@H](NS(=O)(=O)N(C)C)CC3)CC2)c1.Cl [Example 47, trans-N′-(4-(2-(4-(2-bromo-5-methoxybenzyl)-piperidin-1-yl)ethyl)cyclohexyl)-N,N-dimethylsulfamide hydrochloride]
5-HT1A receptor stimulating activity (%) (human 5-HT1A receptor): 37%
melting point: 214 °C

COc1ccc(Br)c(CC2CCN(CC[C@H]3CC[C@H](NC(=O)C(F)(F)F)CC3)CC2)c1.Cl [Example 48, trans-N-(4-(2-(4-(2-bromo-5-methoxybenzyl)-piperidin-1-yl)ethyl)cyclohexyl)-2,2,2-trifluoro-acetamide Hydrochloride]
5-HT1A receptor stimulating activity (%) (human 5-HT1A receptor): 33%
melting point: 230 °C

CCN(CC)[C@H]1CC[C@@H](CCCN2CCC(Cc3cc(OC)ccc3Br)CC2)CC1.Cl.Cl [Example 54, cis-N-(4-(3-(4-(2-bromo-5-methoxybenzyl)-piperidin-1-yl)propyl)cyclohexyl)-N,N-diethylamine Dihydrochloride]
5-HT1A receptor stimulating activity (%) (human 5-HT1A receptor): 16%

CCN(CCOC)[C@H]1CC[C@H](CCN2CCC(Cc3cc(OC)ccc3Br)CC2)CC1.Cl.Cl [Example 58, trans-N-(4-(2-(4-(2-bromo-5-methoxybenzyl)-piperidin-1-yl)ethyl)cyclohexyl)-N-ethyl-N-(2-methoxyethyl)amine Dihydrochloride]
5-HT1A receptor stimulating activity (%) (human 5-HT1A receptor): 30%
melting point: 78 °C

COc1ccc(Br)c(CC2CCN(CC[C@H]3CC[C@@H](CCO)CC3)CC2)c1.Cl [Example 64, cis-2-(4-(2-(4-(2-Bromo-5-methoxybenzyl)-piperidin-1-yl)ethyl)cyclohexyl)ethanol Hydrochloride]
5-HT1A receptor stimulating activity (%) (human 5-HT1A receptor): 19%
melting point: 273 °C

CC(C)Oc1ccc(Br)c(CC2CCN(CC3CCc4ccccc4N3)CC2)c1.Cl.Cl (stereo not shown) [Example 65, 2-((4-(2-Bromo-5-isopropoxybenzyl)piperidin-1-yl)methyl)-1,2,3,4-tetrahydroquinoline Dihydrochloride]
5-HT1A receptor stimulating activity (%) (human 5-HT1A receptor): 64%

Cl.Cl.Clc1ccc(Br)c(CC2CCN(CC3CCc4ccccc4N3)CC2)c1 (stereo not shown) [Example 67, 2-((4-(2-Bromo-5-chlorobenzyl)piperidin-1-yl)methyl)-1,2,3,4-tetrahydroquinoline Dihydrochloride]
5-HT1A receptor stimulating activity (%) (human 5-HT1A receptor): 74%
melting point: 227 °C

COc1ccc(Br)c(CC2CCN(CC3CCc4ccccc4N3)CC2)c1.Cl.Cl (stereo not shown) [Example 69, 2-((4-(2-Bromo-5-methoxybenzyl)piperidin-1-yl)methyl)-1,2,3,4-tetrahydroquinoline Dihydrochloride]
5-HT1A receptor stimulating activity (%) (human 5-HT1A receptor): 63%

COc1ccc(Br)c(CC2CCN(CC3CNc4ccccc4C3)CC2)c1.Cl.Cl (stereo not shown) [Example 70, 3-((4-(2-Bromo-5-methoxybenzyl)piperidin-1-yl)methyl)-1,2,3,4-tetrahydroquinoline Dihydrochloride]
5-HT1A receptor stimulating activity (%) (human 5-HT1A receptor): 7%
